Experimental data reported in ChEMBL document CHEMBL4665827, “Discovery of Small-Molecule Inhibitors of Receptor Activator of Nuclear Factor-κB Ligand with a Superior Therapeutic Index” (J Med Chem, 2020).
pKd: −log10 of the molar value. The source made the active and inactive calls. The calls are words filed in the database; no cut-off is given here.

Columns and labels:
[1] = target: T1, Tumor necrosis factor ligand superfamily member 11 (Homo sapiens) (UniProt O14788); test: Inhibition of human RANKL-induced osteoclastogenesis in RANKL cultured mouse bone marrow cells assessed as reduction in RANKL/M-CSF-induced TRAP activity at 5 uM preincubated with RANKL for 1 hr followed by cell addition and subsequent media replenishment every 48 hrs for 4 days; type: cell-based; conditions: time 4.0 day
T1 sequence (whole entry): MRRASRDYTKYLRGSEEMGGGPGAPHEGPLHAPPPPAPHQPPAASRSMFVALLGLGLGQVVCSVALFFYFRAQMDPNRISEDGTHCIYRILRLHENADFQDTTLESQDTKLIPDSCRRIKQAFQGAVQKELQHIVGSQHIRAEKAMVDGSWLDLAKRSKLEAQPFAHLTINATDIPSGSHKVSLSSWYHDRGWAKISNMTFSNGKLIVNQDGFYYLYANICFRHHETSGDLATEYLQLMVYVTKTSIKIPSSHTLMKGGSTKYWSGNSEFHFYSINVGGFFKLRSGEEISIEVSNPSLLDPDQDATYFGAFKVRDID

[2] = target: T1, Tumor necrosis factor ligand superfamily member 11 (Homo sapiens); test: (§1) Inhibition of human RANKL-induced osteoclastogenesis in RANKL cultured mouse bone marrow cells assessed as reduction in phalloidin-labeled actin ring formation at 5 to 10 uM preincubated with RANKL for 1 hr followed by cell addition and subsequent media replenishment every 48 hrs for 4 days by Alexa Fluor 488-conjugated phalloidin/DAPI-staining based fluorescence microscopic analysis; conditions: dose microM 5-10, time 4.0 day
[3] = Therapeutic index, ratio of LC50 for mouse bone marrow cells to IC50 for Inhibition of human RANKL-induced osteoclastogenesis in RANKL cultured mouse bone marrow cells; type: toxicity; conditions: read-out: Ratio LC50/IC50
[4] = target: T1, Tumor necrosis factor ligand superfamily member 11 (Homo sapiens); test: Potency index, ratio of SPD-304 Kd to test compound Kd for binding affinity to GST-fused human RANKL extracellular domain (Lys159 to Asp317 residues) expressed in Escherichia coli BL21(DE3) pLysS by fluorescence spectrophotometric assay
[5] = Cytotoxicity against mouse BMMC assessed as reduction in cell viability measured after 48 hrs by MTT assay; type: cell-based; conditions: mouse BMMC (bone marrow cells), read-out: LC50
[6] = Effect on osteoblast differentiation in mouse MC3T3-E1 cells assessed as change in ALP activity at 2 to 10 uM with media replenishment every 3 days for 14 days; type: ADME, cell-based; conditions: mc3t3-e1, 336 h, dose 2-10 µM, time 14 day
[7] = target: T1, Tumor necrosis factor ligand superfamily member 11 (Homo sapiens); test: Inhibition of human soluble RANKL trimerization assessed as increase in RANKL monomer level preincubated for 1 hr followed by DSS addition and measured after 1 hr by SDS-PAGE analysis; conditions: time 2.0 hrs
[8] = target: T2, Tumor necrosis factor ligand superfamily member 11 (Homo sapiens, UniProt O14788); test: Binding affinity to GST-fused human RANKL extracellular domain (Lys159 to Asp317 residues) expressed in Escherichia coli BL21(DE3) pLysS by fluorescence spectrophotometric assay; conditions: read-out: Kd
T2 sequence (O14788 whole entry): T1 sequence (whole entry)

[9] = target: T1, Tumor necrosis factor ligand superfamily member 11 (Homo sapiens); test: Inhibition of human RANKL-induced osteoclastogenesis in RANKL cultured mouse bone marrow cells assessed as reduction in RANKL/M-CSF-induced TRAP activity preincubated with RANKL for 1 hr followed by cell addition and subsequent media replenishment every 48 hrs for 4 days; type: cell-based; conditions: time 4.0 day
[10] = target: T1, Tumor necrosis factor ligand superfamily member 11 (Homo sapiens); test: Inhibition of human RANKL-induced osteoclastogenesis in RANKL cultured mouse bone marrow cells assessed as reduction in RANKL/M-CSF-induced TRAP activity at 5 to 10 uM preincubated with RANKL for 1 hr followed by cell addition and subsequent media replenishment every 48 hrs for 4 days; type: cell-based; conditions: dose microM 5-10, time 4.0 day
[11] = target: T1, Tumor necrosis factor ligand superfamily member 11 (Homo sapiens); test: Inhibition of human soluble RANKL trimerization assessed as increase in RANKL monomer level at 1:3 to 1:10 ratio of DSS to RANKL preincubated for 1 hr followed by DSS addition and measured after 1 hr by SDS-PAGE analysis; conditions: time 2.0 hrs
BMMC = test: Cytotoxicity against mouse BMMC assessed as reduction in cell viability at 5 uM measured after 48 hrs by MTT assay; type: cell-based
[12] = target: T1, Tumor necrosis factor ligand superfamily member 11 (Homo sapiens); test: (§2) Inhibition of RANKL (unknown origin) in RANKL cultured mouse RAW264.7 cells assessed as reduction in RANKL/RANK-interaction mediated NFATc1 expression at 2 to 10 uM preincubated for 1 hr followed by cell culture addition and measured after 2 days by Western blot analysis; type: cell-based; conditions: dose microM 2-10, time 49.0 hrs
[13] = target: T1, Tumor necrosis factor ligand superfamily member 11 (Homo sapiens); test: (§3) Inhibition of RANKL (unknown origin) in RANKL cultured mouse RAW264.7 cells assessed as reduction in RANKL/RANK-interaction mediated cFOS expression at 2 to 10 uM preincubated for 1 hr followed by cell culture addition and measured after 2 days by Western blot analysis; type: cell-based; conditions: dose microM 2-10, time 49.0 hrs
[14] = target: T1, Tumor necrosis factor ligand superfamily member 11 (Homo sapiens); test: as §2, with “expression by measuring NFATc1 protein expression” for “expression”, “at” for “at 2 to”, “analysis relative to positive control (reference value: 1)” for “analysis”; type: cell-based; conditions: time 49.0 hrs
[15] = target: T1, Tumor necrosis factor ligand superfamily member 11 (Homo sapiens); test: as §3, with “expression by measuring cFOS protein expression” for “expression”, “5” for “2 to 10”, “analysis relative to positive control (reference value: 1)” for “analysis”; type: cell-based; conditions: time 49.0 hrs
[16] = target: T1, Tumor necrosis factor ligand superfamily member 11 (Homo sapiens); test: as §3, with “expression by measuring cFOS protein expression” for “expression”, “at” for “at 2 to”, “analysis relative to positive control (reference value: 1)” for “analysis”; type: cell-based; conditions: time 49.0 hrs
[17] = target: T1, Tumor necrosis factor ligand superfamily member 11 (Homo sapiens); test: as §2, with “expression by measuring NFATc1 protein expression” for “expression”, “5” for “2 to 10”, “analysis relative to positive control (reference value: 1)” for “analysis”; type: cell-based; conditions: time 49.0 hrs
[18] = target: T1, Tumor necrosis factor ligand superfamily member 11 (Homo sapiens); test: as §1, with “formation” for “formation at 5 to 10 uM”
[19] = target: T1, Tumor necrosis factor ligand superfamily member 11 (Homo sapiens); test: as §2, with “expression by measuring NFATc1 protein expression” for “expression”, “2” for “2 to 10”, “analysis relative to positive control (reference value: 1)” for “analysis”; type: cell-based; conditions: time 49.0 hrs
[20] = target: T1, Tumor necrosis factor ligand superfamily member 11 (Homo sapiens); test: as §3, with “expression by measuring cFOS protein expression” for “expression”, “2” for “2 to 10”, “analysis relative to positive control (reference value: 1)” for “analysis”; type: cell-based; conditions: time 49.0 hrs
[21] = target: T1, Tumor necrosis factor ligand superfamily member 11 (Homo sapiens); test: Inhibition of human soluble RANKL trimerization assessed as increase in RANKL monomer level at 1:3 ratio of DSS to RANKL preincubated for 1 hr followed by DSS addition and measured after 1 hr by SDS-PAGE analysis; conditions: time 2.0 hrs

Compound	inhibition [1] [%]	selectivity ratio [3]	Ratio [4]	CC50 at 48 h [5] [µM]	Activity [6]	pKd [8]	inhibition [9]	other results
CN(CCN(C)Cc1cn(S(=O)(=O)c2ccccc2)c2ccccc12)Cc1coc2ccccc2c1=O	100	23.4	2.7	58.5	Non-Toxic	5.28	Dose-dependent effect	inhibition [2]: Active; inhibition [7]: Dose-dependent effect; inhibition [10]: Active
Cc1cc2occ(CN(C)CCN(C)Cc3cn(-c4cccc(C(F)(F)F)c4)c4ccccc34)c(=O)c2cc1C	–	3.2	–	3.2	–	–	Dose-dependent effect	inhibition [11]: Active; Activity (BMMC): Toxic
CN(CCN(C)C(=O)c1cn(S(=O)(=O)c2ccccc2)c2ccccc12)C(=O)c1coc2ccccc2c1=O	100	21.8	3	62.3	Non-Toxic	5.34	Dose-dependent effect	inhibition [12]: Active; inhibition [13]: Active
CN(CCN(C)C(=O)c1cn(-c2cccc([N+](=O)[O-])c2)c2ccccc12)C(=O)c1coc2ccccc2c1=O	100	27.8	–	44.2	Non-Toxic	5.66	Dose-dependent effect	fold change (FC) [14]: 0.39; fold change (FC) [15]: 0.56; fold change (FC) [16]: 0.48; fold change (FC) [17]: 0.52; inhibition [18]: Dose-dependent effect; fold change (FC) [19]: 0.66; fold change (FC) [20]: 0.58; inhibition [21]: Active
